# Test: Inhibition of CFD in 10% human serum assessed as reduction in alternate complement pathway-mediated hemolysis incubated for 1 hr
compound,measurement,value
C[C@H](NC(=O)[C@@H]1C[C@H]2C[C@H]2N1C(=O)Cn1nc(C(N)=O)c2cccnc21)c1cccc(Cl)c1F,IC50,6 nM
